In paper PMC2942994 (Biochemical pharmacology, 2010):

Experiments:
[1] = target: hSERT (human serotonin transporter) (Homo sapiens, UniProt P31645, M370L); assay: cell-based; parameters: species or system HEK-293, transiently transfected
hSERT V367I = hSERT V367I (Homo sapiens, UniProt P31645, V367I); assay: cell-based; parameters: species or system HEK-293, transiently transfected
Chain of hSERT V367I (P31645 whole entry V367I): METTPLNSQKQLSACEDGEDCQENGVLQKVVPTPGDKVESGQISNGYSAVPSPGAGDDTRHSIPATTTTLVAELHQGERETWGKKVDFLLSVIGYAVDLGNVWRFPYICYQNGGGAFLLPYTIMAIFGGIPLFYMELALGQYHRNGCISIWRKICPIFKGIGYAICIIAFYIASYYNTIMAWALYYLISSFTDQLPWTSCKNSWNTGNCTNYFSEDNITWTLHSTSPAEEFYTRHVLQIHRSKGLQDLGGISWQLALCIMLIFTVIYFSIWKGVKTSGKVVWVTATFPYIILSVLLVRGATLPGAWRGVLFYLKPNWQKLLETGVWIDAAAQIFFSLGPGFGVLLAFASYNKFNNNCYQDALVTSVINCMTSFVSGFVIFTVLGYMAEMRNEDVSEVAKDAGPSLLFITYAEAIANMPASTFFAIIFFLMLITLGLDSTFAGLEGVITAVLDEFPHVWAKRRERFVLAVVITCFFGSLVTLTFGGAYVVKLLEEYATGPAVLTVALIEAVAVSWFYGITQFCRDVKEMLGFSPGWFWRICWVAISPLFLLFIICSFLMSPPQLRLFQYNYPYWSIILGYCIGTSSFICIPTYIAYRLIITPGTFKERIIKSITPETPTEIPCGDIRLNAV

Chain of hSERT (human serotonin transporter) (P31645 whole entry M370L): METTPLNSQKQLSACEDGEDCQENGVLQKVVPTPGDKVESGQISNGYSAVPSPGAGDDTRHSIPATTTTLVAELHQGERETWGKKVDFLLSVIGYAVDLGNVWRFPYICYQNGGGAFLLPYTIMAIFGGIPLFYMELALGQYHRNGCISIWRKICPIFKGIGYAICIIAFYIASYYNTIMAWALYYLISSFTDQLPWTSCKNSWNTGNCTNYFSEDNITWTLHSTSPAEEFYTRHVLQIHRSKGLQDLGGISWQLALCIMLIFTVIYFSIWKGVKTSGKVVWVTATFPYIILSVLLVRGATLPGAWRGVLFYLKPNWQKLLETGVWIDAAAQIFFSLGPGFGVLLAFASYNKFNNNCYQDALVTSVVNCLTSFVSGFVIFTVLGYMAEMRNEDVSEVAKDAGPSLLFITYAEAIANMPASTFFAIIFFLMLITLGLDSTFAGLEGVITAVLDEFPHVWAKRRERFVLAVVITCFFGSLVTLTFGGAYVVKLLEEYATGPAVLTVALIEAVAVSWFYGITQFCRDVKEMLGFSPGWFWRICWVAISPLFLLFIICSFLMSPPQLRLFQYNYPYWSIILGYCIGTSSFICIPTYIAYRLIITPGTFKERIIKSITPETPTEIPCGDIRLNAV

**Q.** `COC(=O)[C@H]1[C@@H](c2ccc(I)cc2)C[C@@H]2CC[C@H]1N2C` [RTI-55] was tested. Which Ki [1] did it give?
**A.** 16 ± 2 nM

**Q.** And the Ki (hSERT V367I)?
**A.** 16 ± 6 nM
